Test results published in US9763444B2, “Compositions and methods for repelling blood-sucking and biting insects, ticks and mites” (The United States of America, as represented by the …, priority 2013, dated 2017).

How the values were obtained:
[1] = system: Ae. aegypti; assay: Complete Protection Time test on treated cloth (duration of protection); assay type: in vivo, Aedes aegypti; details: Dosage 0.75 mg/cm^2 on cloth; for Duration of protection against Ae. aegypti, M-3 Days Protection: subject M-3
Experimental: Bioassay for mosquito repellent activity: Repellency screening test for experimental chemicals were carried out to identify candidates that might be useful repellents. The repellent efficacy was compared to that of the standard repellent, DEET. Experimental compounds were assessed in one of two ways: (1) a range of concentration was evaluated to determine the minimum effective dosage (MED) which was the concentration threshold of where the repellent began to fail and allowed bites, or (2) a predetermined concentration of each repellent was applied to cloth and the activity was evaluated over several days (or in some cases months) (Katritzky, A. R., et al., Proc. Nat. Acad. Sci. (US), 105, 7359-7364 (2008); Katritzky, A. R., et al., Journal of Med. Entomol., 47: 924-938 (2010)). When conducting assays for repellency, a failure point was also predetermined for those measurements. Since experiments described herein used about 500 female mosquitoes per test, the failure point was set at 1% (equal to 5 bites) received during a test interval. From 3 to 5 volunteers participated in the screening of each set of chemicals. Complete Protection Time Test: Complete protection time (CPT) on treated cloth is a method of screening that is used to determine the repellent duration for experimental chemicals that have not been examined for safe use on humans. The standard repellent DEET was used as a positive control as a benchmark by which to compare the repellents. Experimental compounds were prepared in solution by combining 0.075 g of experimental chemical with 1 mL of acetone in a 7.1-mL screwtop glass vial. The same concentration level of DEET was also prepared in this way to serve as a control and a comparison for relative repellency. A 50 cm^2 (5 cm×10 cm) patch of muslin cloth was rolled lengthwise and placed into each of the glass vials and sealed with a screwtop so it soaked up the solution. Just prior to the experiment, the pieces of treated cloth were removed from the vials, affixed to card stock tabs (5 cm×3 cm) with staples, and hung with masking tape on a rack to dry and allowed the volatile acetone to evaporate. Similar to the MED tests, volunteers wore a latex glove over their hands, a nylon stocking over their arm, and then wrapped a plastic Velcro-sealed sleeve over their entire forearm with a 32 cm^2 (4 cm×8 cm) window cut-out to allow mosquitoes to bite through. Dried cloth patches were stretched across the window in the plastic sleeve and held in place with masking tape. Volunteers placed their sleeve-covered arms into a screened cage for a one minute period with approximately 500 female Ae. aegypti mosquitoes that had been preselected for host-seeking behavior using a draw box. A cloth patch that received a 1% bite through level, equal to 5 mosquitoes that bit out of 500 mosquitoes, was considered a failure at that concentration. If 0-4 bites were received, then the treated cloth was still considered to be repellent at that concentration. The duration was recorded as the number of days an experimental chemical received a passing result, with day 0 being the day the sample was first dried. […] As with the tests conducted to determine CPT, volunteers in the study provided informed consent (IRB protocol #636-2005). The protocol was approved by the University of Florida Human Use Institutional Review Board.

[2] = system: Ae. aegypti; assay: Minimum Effective Dosage (MED) test on treated cloth, mosquito repellency; assay type: in vivo, Aedes aegypti; details: for Ae. aegypti Minimum Effective Dosage, M9: human subject M9; for Ae. aegypti Minimum Effective Dosage, M10: human subject M10
Experimental: Bioassay for mosquito repellent activity: Repellency screening test for experimental chemicals were carried out to identify candidates that might be useful repellents. The repellent efficacy was compared to that of the standard repellent, DEET. Experimental compounds were assessed in one of two ways: (1) a range of concentration was evaluated to determine the minimum effective dosage (MED) which was the concentration threshold of where the repellent began to fail and allowed bites, or (2) a predetermined concentration of each repellent was applied to cloth and the activity was evaluated over several days (or in some cases months) (Katritzky, A. R., et al., Proc. Nat. Acad. Sci. (US), 105, 7359-7364 (2008); Katritzky, A. R., et al., Journal of Med. Entomol., 47: 924-938 (2010)). When conducting assays for repellency, a failure point was also predetermined for those measurements. Since experiments described herein used about 500 female mosquitoes per test, the failure point was set at 1% (equal to 5 bites) received during a test interval. From 3 to 5 volunteers participated in the screening of each set of chemicals.
Minimum Effective Dosage (MED) Test: The MED bioassays on treated cloth were a method of screening to determine the minimum amount of a repellent needed to prevent bites. Experimental compounds were prepared in solution by combining 0.15 g of experimental chemical with 2 mL of acetone in a 7.1 mL screwtop glass vial. This solution was then serially diluted to obtain nine concentrations when applied on to the cloth patch: 1.5, 0.75, 0.375, 0.187, 0.094, 0.047, 0.023, 0.011, and 0.006 mg/cm^2. The standard N,N-diethyl-3-methylbenzamide (DEET) was also tested at the same concentration levels to serve as a control and a comparison for relative repellency. A 50 cm^2 (5 cm×10 cm) patch of muslin cloth was rolled lengthwise and placed into each of the glass vials and scaled with a screwtop so it soaked up the solution. Just prior to the experiment, the pieces of treated cloth were removed from the vials, affixed to card stock tabs (5 cm×3 cm) with staples, and hung with masking tape on a rack to dry and allow acetone to evaporate. Volunteers wore a latex glove over their hands, a nylon stocking over their arm, and then wrapped a plastic Velcro-sealed sleeve over their entire forearm with a 32 cm^2 (4 cm×8 cm) window cut-out to allow mosquitoes to bite through. The nylon stocking acted as a barrier between the dried cloth and the skin, an additional precaution with experimental compounds. Dried cloth patches were stretched across the window in the plastic sleeve and held in place with masking tape. Volunteers placed their sleeve-covered arms into a screened cage for a one minute period with approximately 500 female Ae. aegypti mosquitoes that had been preselected for host-seeking behavior using a draw box (Posey, K. H., and C. E. Schreck, Mosquito News, 41: 566-568 (1981)). […] The MED recorded was the lowest passing concentration level tested for the experimental compound. […] All human volunteers in the study provided informed consent to participate of a protocol approved by the University of Florida Human Use Institutional Review Board (IRB #636-2005).

[3] = Table 1 preliminary assay, human subject M4, highest concentration 1.500 mg/cm^2
[4] = Table 1 preliminary assay, human subject M5, highest concentration 1.500 mg/cm^2
[5] = Table 1 preliminary assay, human subject M8, highest concentration 1.500 mg/cm^2
[6] = Table 1 preliminary assay, highest concentration 1.500 mg/cm^2
[7] = Table 1 preliminary assay, mean of 5 volunteers
[8] = Table 5, subject M4, highest dose 0.375 mg/cm2 (0.187 for 7)
[9] = Table 5, subject M5, highest dose 0.375 mg/cm2 (0.187 for 7)
[10] = Table 5, subject M8, highest dose 0.375 mg/cm2 (0.187 for 7)

Structure (SMILES) | Duration of protection, Proportion to DEET [1] | Duration of protection against Ae. aegypti, M-3 Days Protection [1] [days] | mosquito repellent activity against Ae. aegypti (in words) ([2]; MED test on treated cloth) | Ae. aegypti Minimum Effective Dosage, M4 [2, 3] [mg/cm^2] | Ae. aegypti Minimum Effective Dosage, M5 [2, 4] [mg/cm^2] | Ae. aegypti Minimum Effective Dosage, M8 [2, 5] [mg/cm^2] | Ae. aegypti Minimum Effective Dosage, M9 [2, 6] [mg/cm^2] | Ae. aegypti Minimum Effective Dosage, M10 [2, 6] [mg/cm^2] | Ae. aegypti Minimum Effective Dosage, Average [2, 7] [mg/cm^2] | Ae. aegypti Minimum Effective Dosage, F1 ([2]; Table 2, human subject F1, highest concentration 1.500 mg/cm^2) [mg/cm^2] | Ae. aegypti Minimum Effective Dosage, M1 ([2]; Table 2, human subject M1, highest concentration 1.500 mg/cm^2) [mg/cm^2] | Ae. aegypti Minimum Effective Dosage, M2 ([2]; Table 2, human subject M2, highest concentration 1.500 mg/cm^2) [mg/cm^2] | Ae. aegypti Minimum Effective Dosage, Average ([2]; Table 2, mean of 3 volunteers) [mg/cm^2] | Ae. aegypti Minimum Effective Dosage, Average ([2]; Table 5, mean of 3 volunteers) [mg/cm^2] | Ae. aegypti Minimum Effective Dosage, M4 [2, 8] [mg/cm^2] | Ae. aegypti Minimum Effective Dosage, M5 [2, 9] [mg/cm^2] | Ae. aegypti Minimum Effective Dosage, M8 [2, 10] [mg/cm^2] | MED for ~100% Repellency (ED99), surface concentration ([2]; Table 7, treated cloth, female Aedes aegypti) [mg/cm^2]
CC1(C)C=Cc2c(CO)cccc2O1 [Compound 2] | 3.00 | 6 | act as mosquito repellents | 0.011 | 0.011 | 0.011 | 0.094 | 0.047 | 0.035 | 0.023 | 0.023 | 0.023 | 0.023 | 0.009 | 0.011 | 0.011 | 0.006 | 0.011
CCN(CC)C(=O)c1cccc(C)c1 [DEET, N,N-diethyl-3-methylbenzamide, reference compound] | 1.00 | 2 |  | 0.111 | 0.023 | 0.023 | 0.023 | 0.023 | 0.021 |  |  |  |  | 0.015 | 0.011 | 0.011 | 0.023 | 
